Source: patent US20230414609A1, “USES OF ORAI1-SPECIFIC CALCIUM CHANNELS IN TREATMENT OF ORAL CANCER” (New York University, priority 2022, published 2023)
Entries after “also recorded” stand apart in the source; their conditions may differ.

How the values were obtained:
[1] = tested on: MMP1 gene expression in HSC-3 cells; assay: qRT-PCR of MMP1 gene expression in HSC-3 cells; assay type: cell-based, human
Method: (D) is a schematic of the Boyden chambers and solutions used to quantify cell invasion. DOK cells overexpressing ORAI1 (O1) and STIM1 (S1) were seeded in the top chamber with 2% FBS. Media in the bottom chamber contained 10% FBS.
The role of ORAI1 in oral cancer progression was further elucidated by examining the expression of oncogenes in oral cancer, such as MMP1^9,27, as a proof of concept. We first verified the expression of MMP1 in HaCaT, DOK and HSC-3 cells by qRT-PCR analysis. All cells expressed MMP1 in the order oral cancer HSC-3 cells>dysplastic DOK cells>HaCaT cells (FIG. 2A). We next stimulated HSC-3 cells using different concentrations of CPA to examine changes in MMP1 gene expression mediated by SOCE activation. […] These findings were further supported by the decrease in the expression of MMP1 seen in HSC-3 cells with ORAI1 knockdown or deletion. Because in many cells SOCE activation targets the phosphorylation of the transcription factor NFAT (nuclear factor of activated T cells) and its downstream effectors ^28, and because a previous study implicated NFAT in regulating stemness in oral cancer cells ^16, we next interrogated if the transcriptional up-regulation of MMP1 was downstream of NFAT. We first verified the expression of NFAT isoforms (NFAT1-4) in HaCaT, DOK and HSC-3 cells by qRT-PCR analysis showing that NFAT4 (coded by NFATc3) was the most abundant transcript.

TRPV1 = target: T1, TRPV1 (Homo sapiens, UniProt Q8NER1); assay: Stimulation of TRPV1 in HSC-3 cells, cytosolic Ca2+; assay type: cell-based; details: TRPV1 agonist, in the presence of Ca2+
T1 construct: Stimulation of transient receptor channels TRPM7, TRPA1 and TRPV1 in HSC-3 cells; endogenous in cells; host or cells: HSC-3 (human oral squamous cell carcinoma)

TRPM7 = target: T2, TRPM7 (Homo sapiens, UniProt Q96QT4); assay: Stimulation of TRPM7 in HSC-3 cells, cytosolic Ca2+; assay type: cell-based; details: TRPM7 agonist, in the presence of Ca2+
T2 construct: Stimulation of transient receptor channels TRPM7, TRPA1 and TRPV1 in HSC-3 cells; endogenous in cells; host or cells: HSC-3 (human oral squamous cell carcinoma)
Text: (§1) To investigate SOCE in oral cancer cells, we first used qRT-PCR analysis to analyze the expression of ORAI1-3 in the human oral squamous cell carcinoma (OSCC) cell lines HSC-3 and SCC-9, in the dysplastic oral keratinocytes DOK cells, and in spontaneously transformed normal keratinocytes HaCaT cells. […] Next, we tested whether these cells had functional SOCE by stimulating them with cyclopiazonic acid (CPA), a reversible blocker of the sarco-endoplasmic reticulum Ca^2+ ATPase (SERCA) pump that passively depletes the ER Ca^2+ stores inducing STIM1/ORAI1 coupling and SOCE activation ^22,23. […] We also examined the contribution of other channels that have been implicated in Ca^2+ influx in various cancer cells.

HSC-3 cells [2] = assay: Cell proliferation, colorimetric assay MTS; assay type: cell-based, human
Method: FIG. 1: (A) Heatmap contrast of average variance stabilizing transformation (VST) of ORAI1, ORAI2 and ORAI3 genes between normal (control: N=3 samples) and tongue cancer patients (N=10 samples). Statistical significance was analyzed using the Benjamini-Hochberg FDR (5%) and fold change of 1.5. Both FDR values and fold change were generated using DESeq2. (B-D) show haematoxylin and eosin (H&E) staining (left) and immunofluorescence staining of ORAI1 (right) in the boxed areas of tongue tissue sections showing normal (B), dysplastic (C) and invasive tumor (D) phenotypes. Nuclear staining by 4′,6-diamidino-2-phenylindole (DAPI) is shown in blue. Scale bar, 200 μm. […] Quantification of SOCE corrected for baseline Ca^2+ levels as Δpeak (F−F0) (right). (L) and (M) show cell proliferation measured using MTS comparing control HSC-3 cells compared to shORAI1 (ORAI1 KD) (L) or compared to CRISPR/Cas9 ORAI1 (ORAI1 KO) (M).
To address the role of SOCE in key cancer hallmarks such as cell proliferation in oral cancer, we used two independent approaches to eliminate ORAI1 expression in HSC-3 cells. […] To address the effects of ORAI1 in cell proliferation, we analyzed HSC-3 cells in the presence of synta-66 and in which ORAI1 expression had been reduced by shORAI1 or CRISPR/Cas9 editing using the colorimetric assay MTS (FIG. 1, L and M).

HSC-3 cells [3] = assay: Bulk RNA-seq of CPA stimulated HSC-3 cells; assay type: cell-based, human
SOCE in SCC-9 cells = assay: SOCE ([Ca2+]cyto) after CPA stimulation in SCC-9 cells; assay type: cell-based, human; details: in the presence of the blocker
Text: as §1

SOCE in HSC-3 cells = assay: SOCE ([Ca2+]cyto) after CPA stimulation in HSC-3 cells; assay type: cell-based, human; details: in the presence of the blocker
Method: FIG. 1: (A) Heatmap contrast of average variance stabilizing transformation (VST) of ORAI1, ORAI2 and ORAI3 genes between normal (control: N=3 samples) and tongue cancer patients (N=10 samples). Statistical significance was analyzed using the Benjamini-Hochberg FDR (5%) and fold change of 1.5. Both FDR values and fold change were generated using DESeq2. (B-D) show haematoxylin and eosin (H&E) staining (left) and immunofluorescence staining of ORAI1 (right) in the boxed areas of tongue tissue sections showing normal (B), dysplastic (C) and invasive tumor (D) phenotypes. Nuclear staining by 4′,6-diamidino-2-phenylindole (DAPI) is shown in blue. Scale bar, 200 μm. […] (H) and (J) show qRT-PCR analyses of ORAI1 gene expression by the 2^−ΔΔCT method comparing control (scrambled shRNA) and shORAI1 (ORAI1 KD) HSC-3 cells (H) or CRISPR/Cas9 ORAI1 (ORAI1 KO) (J). (I) and (K) show [Ca^2+]cyto measurements comparing control HSC-3 cells compared to shORAI1 (ORAI1 KD) (I) or compared to CRISPR/Cas9 ORAI1 (ORAI1 KO) (K) (left). Quantification of SOCE corrected for baseline Ca^2+ levels as Δpeak (F−F0) (right). (L) and (M) show cell proliferation measured using MTS comparing control HSC-3 cells compared to shORAI1 (ORAI1 KD) (L) or compared to CRISPR/Cas9 ORAI1 (ORAI1 KO) (M). […]

T2 sequence (Q96QT4 whole entry): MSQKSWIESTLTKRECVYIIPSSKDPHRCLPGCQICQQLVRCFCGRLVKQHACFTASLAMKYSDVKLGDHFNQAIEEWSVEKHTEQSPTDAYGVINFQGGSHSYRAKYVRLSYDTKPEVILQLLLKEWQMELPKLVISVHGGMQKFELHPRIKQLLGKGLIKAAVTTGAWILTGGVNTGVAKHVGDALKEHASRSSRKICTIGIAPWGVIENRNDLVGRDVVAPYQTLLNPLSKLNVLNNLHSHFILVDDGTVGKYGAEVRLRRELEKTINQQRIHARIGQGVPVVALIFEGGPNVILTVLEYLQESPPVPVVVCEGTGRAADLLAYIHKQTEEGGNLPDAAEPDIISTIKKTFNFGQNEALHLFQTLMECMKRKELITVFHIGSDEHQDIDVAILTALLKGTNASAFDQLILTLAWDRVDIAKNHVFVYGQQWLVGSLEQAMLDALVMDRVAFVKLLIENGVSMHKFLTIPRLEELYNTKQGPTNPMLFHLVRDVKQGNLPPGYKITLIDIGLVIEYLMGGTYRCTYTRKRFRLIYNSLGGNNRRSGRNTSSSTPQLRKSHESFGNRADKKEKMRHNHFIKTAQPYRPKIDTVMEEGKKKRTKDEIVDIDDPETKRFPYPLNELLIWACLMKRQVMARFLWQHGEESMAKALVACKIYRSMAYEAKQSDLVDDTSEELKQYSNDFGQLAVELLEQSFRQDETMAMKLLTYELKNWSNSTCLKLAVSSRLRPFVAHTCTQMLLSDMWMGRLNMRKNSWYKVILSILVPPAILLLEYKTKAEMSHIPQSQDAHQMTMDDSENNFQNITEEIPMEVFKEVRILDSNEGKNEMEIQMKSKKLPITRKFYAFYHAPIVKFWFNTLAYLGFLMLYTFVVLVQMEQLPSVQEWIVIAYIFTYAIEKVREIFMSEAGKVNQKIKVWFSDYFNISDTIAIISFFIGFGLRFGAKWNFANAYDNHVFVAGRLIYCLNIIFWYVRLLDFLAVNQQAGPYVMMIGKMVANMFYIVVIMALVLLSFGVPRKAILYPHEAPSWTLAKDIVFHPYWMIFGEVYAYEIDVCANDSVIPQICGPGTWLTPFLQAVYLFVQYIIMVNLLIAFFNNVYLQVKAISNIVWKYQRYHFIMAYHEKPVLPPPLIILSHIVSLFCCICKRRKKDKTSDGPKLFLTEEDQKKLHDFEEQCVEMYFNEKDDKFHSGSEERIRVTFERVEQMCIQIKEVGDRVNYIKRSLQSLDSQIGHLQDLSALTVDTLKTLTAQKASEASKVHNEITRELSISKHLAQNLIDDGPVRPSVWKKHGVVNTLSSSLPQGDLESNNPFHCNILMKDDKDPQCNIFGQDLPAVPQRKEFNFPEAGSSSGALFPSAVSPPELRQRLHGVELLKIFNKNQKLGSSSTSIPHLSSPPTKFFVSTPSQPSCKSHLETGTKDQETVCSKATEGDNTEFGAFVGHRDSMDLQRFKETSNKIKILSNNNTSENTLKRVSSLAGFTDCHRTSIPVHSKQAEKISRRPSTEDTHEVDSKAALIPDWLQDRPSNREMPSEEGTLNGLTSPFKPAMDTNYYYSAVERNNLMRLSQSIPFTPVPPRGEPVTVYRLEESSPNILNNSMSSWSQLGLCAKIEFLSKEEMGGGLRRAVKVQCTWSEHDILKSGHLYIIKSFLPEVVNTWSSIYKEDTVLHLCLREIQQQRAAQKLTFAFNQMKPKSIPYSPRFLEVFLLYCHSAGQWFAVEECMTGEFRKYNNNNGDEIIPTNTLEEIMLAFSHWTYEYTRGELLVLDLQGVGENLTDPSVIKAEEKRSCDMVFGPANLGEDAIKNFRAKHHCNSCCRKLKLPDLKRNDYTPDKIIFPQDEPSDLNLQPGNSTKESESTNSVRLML
T1 sequence (Q8NER1 whole entry): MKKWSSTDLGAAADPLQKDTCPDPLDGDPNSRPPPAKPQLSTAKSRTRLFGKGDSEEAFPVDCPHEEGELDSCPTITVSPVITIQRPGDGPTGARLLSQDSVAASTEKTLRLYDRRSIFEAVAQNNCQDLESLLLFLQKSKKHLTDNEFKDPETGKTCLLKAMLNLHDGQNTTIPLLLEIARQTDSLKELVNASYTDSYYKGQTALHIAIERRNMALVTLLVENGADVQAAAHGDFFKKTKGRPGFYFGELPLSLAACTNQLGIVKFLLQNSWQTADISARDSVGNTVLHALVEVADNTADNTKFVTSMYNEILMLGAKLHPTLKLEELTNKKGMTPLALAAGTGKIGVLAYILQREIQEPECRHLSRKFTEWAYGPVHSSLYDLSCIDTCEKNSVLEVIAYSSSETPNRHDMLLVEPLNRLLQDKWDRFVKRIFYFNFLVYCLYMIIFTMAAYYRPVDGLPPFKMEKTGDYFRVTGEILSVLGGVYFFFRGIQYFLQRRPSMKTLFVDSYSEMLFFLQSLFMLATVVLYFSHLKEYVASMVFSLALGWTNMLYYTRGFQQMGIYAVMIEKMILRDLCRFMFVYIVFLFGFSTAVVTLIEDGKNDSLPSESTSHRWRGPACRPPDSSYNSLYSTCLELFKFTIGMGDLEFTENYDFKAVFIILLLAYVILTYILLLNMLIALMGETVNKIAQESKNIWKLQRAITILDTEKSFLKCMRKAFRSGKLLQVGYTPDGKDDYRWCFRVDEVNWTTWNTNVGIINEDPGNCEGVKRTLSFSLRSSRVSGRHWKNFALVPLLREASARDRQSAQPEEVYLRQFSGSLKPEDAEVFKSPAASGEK

## CC(=O)C1=C(O)[C@@H]2[C@H]3c4c[nH]c5cccc(c45)C[C@H]3C(C)(C)N2C1=O [CPA, cyclopiazonic acid]
[1]; HSC-3 cells, CPA stimulation
  time of maximal effect on MMP1 gene expression: 3 h

## COc1cc(CNC(=O)CCCC/C=C/C(C)C)ccc1O [capsaicin]
TRPV1
  increase in cytosolic Ca2+: failed to evoke an increase

## Oc1ccc2c3c1O[C@H]1c4oc5ccccc5c4C[C@@]4(O)[C@@H](C2)N(CC2CC2)CC[C@]314 [naltriben]
TRPM7
  increase in cytosolic Ca2+: failed to evoke an increase

## COc1ccc(OC)c(-c2ccc(NC(=O)c3ccncc3F)cc2)c1 [synta-66]
HSC-3 cells [2]
  proliferation compared to control cells: significantly decreased
[1]; HSC-3 cells stimulated with CPA
  effect on the CPA-elicited increase in MMP1 gene expression: attenuated the increase
HSC-3 cells [3]
  mRNA level of pain modulators (VEGF-A, B and C, NGF, TLR2, PTGS2): down-regulated
HSC-3 cells [3]; out of >21 genes in the MMP family, FDR<0.05
  number of MMP genes significantly down-regulated: 8
SOCE in SCC-9 cells
  SOCE: significantly reduced
SOCE in HSC-3 cells
  SOCE: significantly reduced; also recorded: abolished
